Entries after “also recorded” stand apart in the source; their conditions may differ. Where no end group is shown, it is not given here.
Key:
Type in all cases: cell-based
rat secretin receptor = molecular target: T1, rat secretin receptor (Rattus norvegicus, UniProt P23811); experiment: cAMP response in COS-7 cells transfected with the rat secretin receptor; settings: PTH(1–14) 100 mM
T1 construct: expressed in transfected cells; host or cells: COS-7, transient
Experimental: FIG. 6. Specificity of the Truncated Ligand and PTH Receptor. COS-7 cells transiently transfected with either rWT-HA (A), rΔNt (B), or the intact rat secretin receptor (C), were treated with the indicated peptides for 60 min at 22° C., and the resulting intracellular cAMP levels were quantified by RIA. […] 1 mM and secretin(1–13), 100 mM. Shown are data (mean±s.e.m.) from one experiment performed in duplicate, and this was repeated twice more with equivalent results.
(§1) Intracellular cyclic AMP: Transfected COS-7 or HKRK-B7 cells were rinsed with 500 ml of binding buffer, (50 mM Tris-HCl, pH 7.7, 100 mM NaCl, 5 mM KCl, 2 mM CaC12, 5% heat-inactivated horse serum, 0.5% heat-inactivated fetal bovine serum) and 200 ml of IBMX buffer (DMEM containing 2 mM IBMX, 1 mg/ml bovine serum albumin, 35 mM Hepes-NaOH, pH 7.4) and […] of binding buffer or binding buffer containing various amounts of peptide were added. The plates were incubated for 60 minutes at room temperature. The buffer was then withdrawn and the cells were frozen on dry ice, treated with 0.5 ml of 50 mM HCl, and refrozen. After the thawing, the lysate was diluted 30-fold in dH20 and an aliquot was analyzed for cAMP content by determined radioimmunoassay using unlabeled cAMP as a standard.
In order to test whether PTH(1–14) and rΔNt retained the appropriate recognition specificity for the corresponding parent ligand, cross-reactivity experiments were done using secretin ligands and the cloned rat secretin receptor. […] Cells expressing rΔNt responded to PTH(1–34) and PTH(1–14) but not to secretin(1–27) (1 mM) or secretin(1–13) ([…]) (FIG. 5B). Thus, the recognition specificity of PTH(1–14) and rΔNt appear to replicate that of the intact parent molecules. No evidence for relaxed specificity was detected in these studies (FIG. 6).

human PTH-1 receptor = molecular target: T2, human PTH-1 receptor (Homo sapiens, UniProt Q03431); experiment: cAMP-stimulating activity in HKRK-B7 cells (LLC-PK1 stably transfected with human PTH-1 receptor), RIA; parameters: maximum cAMP response: dose or concentration left out as unconfirmed; settings: for increase in intracellular cAMP levels relative to the basal cAMP level: 60 min at 22° C.
T2 construct: expressed in transfected cells; host or cells: HKRK-B7 (LLC-PK1 stably transfected, pCDNA-1-based plasmid)
T2 sequence (Q03431 27-593): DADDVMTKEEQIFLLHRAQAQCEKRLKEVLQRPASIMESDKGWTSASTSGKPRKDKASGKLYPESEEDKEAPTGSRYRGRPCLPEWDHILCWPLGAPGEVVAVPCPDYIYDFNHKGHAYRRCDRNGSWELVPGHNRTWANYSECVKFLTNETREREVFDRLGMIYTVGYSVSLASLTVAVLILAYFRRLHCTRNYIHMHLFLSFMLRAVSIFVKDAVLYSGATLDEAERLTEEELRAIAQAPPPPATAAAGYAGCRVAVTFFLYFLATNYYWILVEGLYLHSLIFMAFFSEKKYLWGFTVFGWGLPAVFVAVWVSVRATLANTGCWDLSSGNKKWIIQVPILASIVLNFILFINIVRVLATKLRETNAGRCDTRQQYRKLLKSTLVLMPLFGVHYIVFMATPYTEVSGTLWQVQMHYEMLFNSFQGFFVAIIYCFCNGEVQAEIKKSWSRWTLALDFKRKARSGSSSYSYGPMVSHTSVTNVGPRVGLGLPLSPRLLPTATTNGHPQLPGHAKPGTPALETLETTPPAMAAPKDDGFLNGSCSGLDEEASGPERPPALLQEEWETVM
Experimental: (§2) FIG. 2. cAMP-stimulating Activity of PTH Fragments in LLC-PK1 Cells. A) Rat PTH(1–34) analog or amino-terminal rPTH fragments were tested for cAMP-stimulating activity in an LLC-P1-derived cell line (HKRK-B7) stably transfected with the human PTH-1 receptor. Cells were treated with peptide at the indicated doses for 60 min at 22° C. Intracellular cAMP was measured by RIA, as described in Experimental Procedures. Shown are combined data (mean±s.e.m.) from 3 separate experiments, each performed in duplicate. B) HKRK-B7 cells, or untransfected LLC-PK1 were treated with rPTH(1–34) or rPTH(1–14), and intracellular cAMP was measured. Shown are data (mean±s.e.m.) from a single representative experiment performed in duplicate.
FIG. 3. Alanine-scan of PTH(1–14). HKRK-B7 cells were treated with 100 mM of one of 14 different rPTH(1–14) analogs, each having a different alanine-substitution at the indicated amino acid position. The resulting cAMP levels were determined as described in Experimental Procedures. Shown are the combined data (mean±s.e.m.) from three separate experiments, each performed in duplicate. The mean (mean±s.e.m.) basal cAMP levels observed in the three experiments was 2.1±0.1 pmole/well, and the maximum response to rPTH(1–34) at 0.1 mM was 254±16 pmole/well.
Cell Culture and DNA Transfection: COS-7 and HKRK-B7 cells were cultured at 37° C. in Dulbecco's modified Eagle's medium (DMEM) supplemented with fetal bovine serum (10%); penicillin G (20 units/ml), streptomycin sulfate (20 μg/ml) and amphotericin B (0.05 μg/ml) in a humidified atmosphere containing 5% CO2. Twenty-four to 16 hours prior to assay, cells in 24-well plates were shifted to a humidified incubator containing 5% CO2 that was set at 33° C. Stock solutions of EGTA/trypsin and antibiotics were from GIBCO; fetal bovine serum was from Hyclone Laboratories (Logan, Utah). Derivation and characterization of the HKRK-B7 cell line by stable transfection of LLC-PK1 cells with a pCDNA-1-based plasmid (In Vitrogen, San Diego, Calif.) encoding the hPTH-1 receptor was described previously (Takasu, H. and Bringhurst, F., Endocrinology, in press (1998)). These cells express PTH-1 receptors at a surface density of about 1×10^6 PTH-binding sites per cell. The HKRK-B7 cells were used for functional assays 24 to 72 hours after the cell monolayer reached confluency.
as §1
Amino-terminal peptide fragments based on the rat PTH sequence and ranging in length from PTH(1–9) to PTH(1–15) were synthesized and tested for activity in an LLC-PK1-derived cell line called HKRK-B7 which stably expresses high levels (1×10^6 receptors/cell) of the cloned human PTH-1 receptor (Takasu, H. and Bringhurst, F., Endocrinology, in press (1998)).

[1] = system: parental LLC-PK1 cells (no PTH receptors, endogenous calcitonin receptors); experiment: cAMP response in untransfected parental LLC-PK1 cells; settings: untransfected LLC-PK1 cells expressing calcitonin receptor but no PTH receptors
Experimental: as §2
as §1, with “The buffer was then withdrawn and the cells were frozen on dry ice, treated with 0.5 ml of 50 mM HCl, and refrozen.” left out, “standard. […]” for “standard.”

T1 sequence (P23811 26-449): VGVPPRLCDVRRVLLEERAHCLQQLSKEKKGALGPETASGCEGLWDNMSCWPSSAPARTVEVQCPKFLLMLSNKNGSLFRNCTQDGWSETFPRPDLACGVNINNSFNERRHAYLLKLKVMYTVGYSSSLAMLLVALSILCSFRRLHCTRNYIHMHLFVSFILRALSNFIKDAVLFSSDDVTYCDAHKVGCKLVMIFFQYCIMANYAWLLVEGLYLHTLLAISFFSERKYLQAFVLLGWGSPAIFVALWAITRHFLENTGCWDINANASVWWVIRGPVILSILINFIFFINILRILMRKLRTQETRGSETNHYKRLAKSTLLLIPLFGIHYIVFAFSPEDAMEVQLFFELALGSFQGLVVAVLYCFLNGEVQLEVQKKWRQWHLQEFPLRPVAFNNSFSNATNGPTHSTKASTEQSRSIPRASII

| Compound | cAMP response of secretin receptor cells (in words) (rat secretin receptor) | EC50 (human PTH-1 receptor) [nM] | increase in intracellular cAMP levels relative to the basal cAMP level (human PTH-1 receptor; HKRK-B7 cells) | maximum cAMP response (human PTH-1 receptor; HKRK-B7 cells, mean±s.e.m. of three experiments, basal 2.1±0.1 pmole/well) [pmole/well] | cAMP responsiveness of parental LLC-PK1 cells [1] | doses required for cAMP activation compared with the dose required for PTH(1–34) (human PTH-1 receptor; HKRK-B7 cells) | potency relative to PTH(1–34) with the intact receptor (human PTH-1 receptor; intact receptor) |
| --- | --- | --- | --- | --- | --- | --- | --- |
| CCCC[C@H](NC(=O)[C@H](CCCNC(=N)N)NC(=O)[C@H](CCC(=O)O)NC(=O)[C@@H](NC(=O)[C@H](CO)NC(=O)[C@H](C)NC(=O)[C@H](CC(C)C)NC(=O)[C@H](Cc1c[nH]cn1)NC(=O)[C@H](CCCCN)NC(=O)CNC(=O)[C@H](CC(C)C)NC(=O)[C@H](CC(N)=O)NC(=O)[C@H](Cc1c[nH]cn1)NC(=O)[C@H](CCCC)NC(=O)[C@H](CC(C)C)NC(=O)[C@H](CCC(N)=O)NC(=O)[C@@H](NC(=O)[C@H](CCC(=O)O)NC(=O)[C@H](CO)NC(=O)[C@@H](NC(=O)[C@H](C)N)C(C)C)[C@@H](C)CC)C(C)C)C(=O)N[C@@H](CCC(N)=O)C(=O)N[C@@H](Cc1c[nH]c2ccccc12)C(=O)N[C@@H](CC(C)C)C(=O)N[C@@H](CCCNC(=N)N)C(=O)N[C@@H](CCCCN)C(=O)N[C@@H](CCCCN)C(=O)N[C@@H](CC(C)C)C(=O)N[C@@H](CCC(N)=O)C(=O)N[C@@H](CC(=O)O)C(=O)N[C@H](C(=O)N[C@@H](Cc1c[nH]cn1)C(=O)N[C@@H](CC(N)=O)C(=O)N[C@@H](Cc1ccc(O)cc1)C(N)=O)C(C)C [PTH(1–34), [Nle^8,21,Tyr^34]rPTH-(1–34)NH2] | did not respond | ~2 | 50 fold | 254±16 | unresponsive |  |  |
| PTH(1–14): Amino-terminal peptide fragment based on the rat PTH sequence, residues 1–14, C-terminally amidated (AVSEIQLMHNLGKH-NH2) | did not respond |  | about 20 fold |  | did not activate; also recorded: unresponsive | five to six orders of magnitude higher | about five orders of magnitude weaker |

Source: US7169567B1, “Screening assay utilizing the PTH receptor” (The General Hospital Corporation, priority 1998, dated 2007)
